Data reported in a melting point compilation (Tetko et al.; mined from patent text by program, amines drawn as free bases though some values may be those of a salt).

Row | SMILES | melting point [°C]
1 | CC(C)(Cn1cnc2c(N)nc3ccccc3c21)C(N)=O | 287 to 289
2 | O=C(O)c1c(Cl)c(Cl)cc([N+](=O)[O-])c1Cl | 149 to 151
3 | CC(C)C(NC(=O)OCc1ccccc1)P(O)O (stereo not drawn) | 108 to 111
4 | CCc1c(F)c(=O)oc2cc(O)cc(O)c12 | 227 to 229
5 | Cc1nc(CN(C)C(=O)N[C@H](C(=O)N[C@@H](Cc2ccccc2)[C@@H](O)C[C@H](Cc2ccccc2)NC(=O)OCc2cccnc2)C(C)C)cs1 | 66 to 69
6 | Nc1ccc(S(=O)(=O)c2cc(N)cc(Br)n2)cc1 | 202 to 204
7 | O=C(NCc1ccc2c(c1)OCO2)Nc1cc(N2CC(c3ccccc3)CC2=O)ccn1 (stereo not drawn) | 185 to 188
8 | CCCc1ccc(C=O)n1Cc1ccc(-c2ccccc2-c2nnn[nH]2)cc1 | 68 to 71
9 | Cc1c(=O)o[n-][n+]1CCSC12CC3CC(CC(C3)C1)C2 | 92 to 93
10 | O=C(O)[C@@H]1CCCN1C(=O)c1cc2cc3c(cc2c2cc(O)ccc12)OCO3 | 230 to 231
11 | CC(C)(C1CC1)C(O)(Cn1cncn1)c1ccc(Cl)cc1 (stereo not drawn) | 88 to 90
12 | CCC=NNC(=O)c1cc(OC)cc(Oc2cccc(C(F)(F)F)c2)n1 | 154 to 155
13 | NS(=O)(=O)c1cc(S(N)(=O)=O)c(C(Cl)=C(Cl)Cl)cc1NCc1ccco1 | 155
14 | CCCc1cc(=O)oc2c(C(=O)CC)c(O)c3c(c12)OC(C)(C)C=C3 | 96 to 98
15 | CCO[C@H]1C(C(=O)NCc2ccc(Cl)cc2)=C(C)OC(OCC)(OCC)[C@H]1C (relative stereo) | 97 to 100
16 | COC(=O)C(NC(=O)C=Cc1ccccc1)C(=O)C(C)C (stereo not drawn) | 74 to 75
17 | COC(=O)COc1cc2c(c(Cl)c1Cl)C(=O)C(CCOC(C)=O)C2 (stereo not drawn) | 111 to 113
18 | Cc1cccc(-c2[nH]c(C3CC3)nc2-c2cccc(-c3ccc(C(=O)NC4CCOCC4)cc3)c2)n1 | 127 to 128
19 | COc1ccc(CN2C(=O)C(CO)(c3ccccc3Cl)c3cc(Cl)ccc32)c(OC)c1 (stereo not drawn) | 165
20 | Cc1nccc(O)c1[N+](=O)[O-] | 140
21 | NC(=O)c1nc(-c2cccnc2)nc2c1[nH]c(=O)n2[C@H]1CC[C@H](O)CC1 | 331 to 333
22 | Cc1cc(O)c(C)c(C)c1OC(=O)C(C)(C)C | 88 to 112
23 | COc1cccc2c(CCO)c(C)oc12 | 58 to 59
24 | CC(=O)Nc1c(CC(=O)O)cccc1Oc1ccccc1 | 155 to 156

Row | SMILES | melting point [°C]
25 | CCC(Sc1cc2ccccc2n1C)(C(=O)OC)c1ccccc1 (stereo not drawn) | 90 to 91
26 | O=C(CCl)c1ccc2c(c1)[C@H](NC(=O)C(F)(F)F)CC2 | 166 to 167
27 | CC(C)(C)n1cc(-c2ccc(Oc3ccccc3)cc2)c2c(N)ncnc21 | 157 to 158
28 | Nc1ccccc1C(=O)NC1CCN(CCCOc2ccc3c4c(c(=O)oc3c2)CCC4)CC1 | 269 to 270
29 | Cn1c(CCCOc2ccc(CC3SC(=O)N(C(c4ccccc4)(c4ccccc4)c4ccccc4)C3=O)cc2)nc2cccnc21 (stereo not drawn) | 76 to 81
30 | CCNc1nc2c(N)nc(C)c(C)c2n1CC(C)C | 168 to 170
31 | N#Cc1cn(C2CC(O)C(CO)O2)c(=O)[nH]c1=O (stereo not drawn) | 161
32 | CCNC(=O)Nc1nc2cc(-c3ccc(OC)nc3)ccn2n1 | 230 to 233
33 | CN(C)CCNC1=CC(=O)c2nc(-c3ccccc3Br)oc2C1=O | 147 to 148
34 | Cc1cc(C(=O)Nc2ccc(SC(F)(F)F)c(Cl)c2)c(O)c(C23CC4CC(CC(C4)C2)C3)c1 | 205 to 206
35 | CCOC(=O)c1cc(SC#N)c(-c2ccc(Cl)cc2)[nH]1 | 138 to 141
36 | O=C(c1ccc(F)cc1)C1CCN(CCn2c(=O)[nH]c3cc(F)ccc3c2=O)CC1 | 248
37 | OC(Cn1ccnc1)(c1ccccc1)c1ccc(-c2ccccc2)cc1 (stereo not drawn) | 224
38 | O=C(O)CC(Cc1ccccc1)NC(=O)C1Cc2ccccc2N1S(=O)(=O)c1ccc(-c2cccc(C(F)(F)F)c2)cc1 (stereo not drawn) | 78 to 82
39 | CCOC=Nc1c(C#N)cnn1-c1ccc(Cl)c(Cl)c1Cl | 131 to 132
40 | N#CCNC(=O)C(Cl)=C(Cl)Cl | 58 to 60
41 | COC(=O)Cc1cc(OC)c(OC)cc1[N+](=O)[O-] | 110 to 111
42 | COC(=O)CCCc1cc2nc(C(F)(F)F)ccc2n1S(=O)(=O)c1ccccc1 | 95
43 | CC12CCC(O)C(O)C1=CCC1C2CCC2(C)C(O)C(O)CC12 (stereo not drawn) | 238 to 241
44 | Cc1c(C(=O)NC2CCN(Cc3ccccc3)CC2)c2cc(F)ccc2n1Cc1ccccc1 | 194 to 195
45 | CN1CC(CNNC(=S)Nc2ccccc2)CC2c3cccc4[nH]cc(c34)CC21 (stereo not drawn) | 205 to 206
46 | CCc1nnc2c(O)nc3cc(Cl)ccc3n12 | > 300
47 | CC(C)(C)c1nc2cc(N3CCNCC3)c([N+](=O)[O-])cc2s1 | 144 to 146

The remaining lines, values ahead:

Row | melting point [°C] | SMILES
48 | 140 to 142 | CSC1C(=O)Nc2c(Oc3ccccn3)cccc21 (stereo not drawn)
49 | 112 to 113 | CN1CCN(Cc2cc(-c3ccc4c(c3)CCO4)nn(CC=Cc3ccc(Cl)cc3)c2=O)CC1
50 | 293 to 295 | CCOCCn1cc2c(C3C(=O)Nc4ccc(Cl)cc43)nc(NCCN(C)C)nc2n1 (stereo not drawn)
51 | 64 | CCSC1COC(Cn2cncn2)(c2ccc(Cl)cc2Cl)C1 (stereo not drawn)
52 | 65 to 67 | O=C1OC(=O)c2c1cccc2C(F)(F)F
53 | 118 to 120 | Cc1cc(CO)nc(Nc2ccccc2)n1
54 | 97 to 105 | CCCCc1nc2c(O)ccc(CCN(C)C)c2[nH]1
55 | 242 to 243 | O=C(O)c1ccccc1N1C(=O)c2ccc([N+](=O)[O-])cc2C1=O
56 | 217 to 219 | O=c1cc(-c2cc[nH]n2)oc2ccc(Cl)cc12
57 | 210 to 211 | COc1ccc(C2=NN(C3CCN(C(=O)CN4C(=O)COCC4=O)CC3)C(=O)C(C)(C)C2)cc1OC
58 | 130 to 132 | COc1cc(N)c(Cl)cc1C(=O)NCC1CCN(CCCCCC(=O)c2csc3ccccc23)CC1
59 | 91 to 92 | Cc1ccc(N2CCOCC2)c(N=C=S)c1
60 | 162 to 164 | CC(=O)NCC1CC(c2ccc(-n3ccc(CO)c3)c(F)c2)=NO1 (single isomer, unassigned; (-))
61 | 202 to 206 | CCOc1ccc(Nc2c([N+](=O)[O-])cc([N+](=O)[O-])c(Cl)c2C(=O)O)cc1
62 | 108 to 110 | Cc1cccc(C(=O)NC(C)(C(N)=S)C(C)C)c1 (stereo not drawn)
63 | 322 to 325 | O=C1NN=C(c2ccc3[nH]c(-c4ccncc4)cc3c2)CO1
64 | 97 to 99 | O=C1c2ccccc2C(=O)N1C(Sc1ccccc1)c1ccccc1 (stereo not drawn)
65 | 161 to 162 | O=C(O)COc1ccc(SCc2cc(-c3ccccc3Cl)on2)c2c1CCC2
66 | 186 | Cc1nc(NC(=O)C2c3ccccc3Oc3ccccc32)no1
67 | 104 to 106 | O=C(CCc1ccccc1)N[C@H]1COC1=O
68 | 94 to 95 | COc1ccc2c(c1OCc1ccccc1)CCN(C(C)=O)C2
69 | 145 to 147 | COc1ccc(C2=NN(C3CCN(C(=O)NC(C)(C)C)CC3)C(=O)[C@H]3CC=CC[C@@H]23)c2c1OC(C)(C)C2 (relative stereo)
70 | 225 | O=C(NC1CCCC1)N1CCc2[nH]cnc2C1
71 | 138 to 142 | CCOCC(=O)Nc1c(NCCNC(=O)OC(C)(C)C)c(C)c(C)n2nnnc12
72 | 200 to 202 | Cc1nc(-c2ccc(OCC(C)C)c(Br)c2)sc1C(=O)O
73 | 93 to 95 | CCCCN1CCCC1=NC(=O)Nc1c(C)cccc1C

Row | melting point [°C] | SMILES
74 | 134 to 138 | COc1ccc(C(O)C(CO)[N+](=O)[O-])cc1OC (stereo not drawn)
75 | 160 to 162 | Cc1ccc2nc(-c3cccc(Cl)c3)oc(=O)c2c1
76 | 152 to 155 | COC(=O)c1c(Cl)cc(Cl)cc1NC(=O)CSc1ccc(NC(=S)NCc2ccccc2)cc1
77 | 249 to 251 | Cn1nnc2cc3c(cc2c1=O)OC1CCCN1C3=O (stereo not drawn)
78 | 155 to 156 | O=C(NC(=O)N1CCC(Cc2ccccc2)CC1)c1ccc(OCc2ccccc2)cc1
79 | 136 to 138 | CCc1cccc(CC)c1-n1cnc(N)nc1=O
80 | 154 to 155 | O=C(Nc1ccc(Oc2ccc(Cl)cc2Cl)nc1)N1CCc2ccccc2CC1
81 | 104 to 105 | CC(=O)Nc1ccc(CC2CCN(CCS(=O)c3ccc4[nH]c(=O)oc4c3)CC2)cc1 (stereo not drawn)
82 | 68 to 70 | N#CC=C1CCN(c2ccc(N3C[C@H](CNC(=O)CO)OC3=O)cc2F)CC1
83 | 200 | COc1cc(C)cc(-c2nn(CC#N)cc2-c2cc(NC[C@H](C)O)nc(-c3cccnc3)n2)c1
84 | 206 to 209 | Cn1c(=O)c2c(nc3n(Cc4ccccc4)c(=O)cc(O)n23)n(C)c1=O
85 | 75 to 78 | O=C1CNCCN1CCc1ccccc1
86 | 143 to 146 | Cc1c(C(C)(C)C)cc(C(C)C)c(O)c1CO
87 | 162 to 163 | CC(=O)CCc1cc(-c2ccncc2)sc1-c1ccncc1
88 | 106 to 107 | CC(C)(c1ccc(O)cc1)c1ccc(O)c(Cl)c1
89 | 177 to 180 | CSc1sc(-c2nc(C)no2)c2c1C(=O)CC(C)(C)C2
90 | 128 to 145 | CCN(CC)CCc1cccc(Nc2ncc3c(n2)N(c2cccc(C#N)c2)C(=O)N(c2ccc(OC)cc2)C3C)c1 (stereo not drawn)
91 | 142 to 147 | CN(C)c1ccc(NC(=O)N(C[C@H]2CCC[C@H](CN(C(=O)Nc3ccc(N(C)C)cc3)C3CCCC3)C2)C2CCCC2)cc1 (relative stereo)
92 | 194 to 197 | CCN1c2ncccc2C(=O)Nc2c(C)cc(N3CCCC(CO)C3)nc21 (stereo not drawn)
93 | 108 | O=Cc1ccc(-c2nn(Cc3ccccc3)c3ccccc23)o1
94 | 57 to 58 | CC(C)(C)OC(=O)Nc1cc(N2CCC(OCCOC3CCCCO3)CC2)c(-c2ccc(F)cc2)cc1NC(=O)CC(=O)c1cccc(-n2ccnc2)c1 (racemic)
95 | 99 | CCCCCCCCC1(C)SC(=O)C=C1OCC(=O)Nc1ccc(OC)cc1 (stereo not drawn)
96 | 108 to 110 | CN(C)C=C(C#N)S(=O)(=O)c1ccccc1
97 | 162 to 163 | COc1ccc(Nc2cc(N3CCCC3)nc(N3CCCC3)n2)cc1
98 | > 300 | O=C1CCC(Nc2ccc3[nH]c(=O)c(C(=O)O)cc3c2)N1 (stereo not drawn)
